Laboratory results from patent US20240182445A1 (ONO PHARMACEUTICAL CO., LTD., priority 2019, published 2024).
pIC50: −log10 of the molar value.

target: T1, human TREK-1 (Homo sapiens, UniProt O95069); assay: TREK-1 Thallium (Tl+) flux assay, Method 1; format: cell-based; details: TREK-1 Thallium (Tl+) flux assay, Method 1
T1 construct: expressed in transfected cells
T1 sequence (O95069 1-426): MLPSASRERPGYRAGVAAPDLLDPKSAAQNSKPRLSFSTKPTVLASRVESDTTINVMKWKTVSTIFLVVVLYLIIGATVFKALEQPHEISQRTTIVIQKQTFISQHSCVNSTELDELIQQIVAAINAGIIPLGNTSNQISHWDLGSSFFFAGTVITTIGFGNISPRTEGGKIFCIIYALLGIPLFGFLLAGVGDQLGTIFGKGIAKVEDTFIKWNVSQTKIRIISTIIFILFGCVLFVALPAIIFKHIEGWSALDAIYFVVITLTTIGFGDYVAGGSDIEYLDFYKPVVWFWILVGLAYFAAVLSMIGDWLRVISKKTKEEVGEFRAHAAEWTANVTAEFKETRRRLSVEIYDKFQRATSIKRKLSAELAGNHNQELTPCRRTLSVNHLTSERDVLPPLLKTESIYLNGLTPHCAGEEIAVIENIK
Summary of the method: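 CHO-K1 cells stably expressing human TREK-1, loaded with Thallos dye, received compound or 0.3% DMSO vehicle for 10 min before thallium stimulus buffer. ΔRatio is fluorescence at 25 s after thallium addition over mean pre-addition fluorescence; % inhibition calculated from it.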

pIC50	Structure (SMILES)
5.64	COc1ccc(-c2cnc(NC(=O)c3c(Cl)cnn3C3CCN(C(=O)OC(C)(C)C)CC3)c(C)c2)c(C)c1 [Compound 403, tert-butyl 4-(4-chloro-5-((5-(4-methoxy-2-methylphenyl)-3-methylpyridin-2-yl)carbamoyl)-1H-pyrazol-1-yl)piperidine-1-carboxylate]
5.36	CC(=O)N1CCC(n2ncc(Cl)c2C(=O)Nc2ncc(-c3ccc(OC(F)F)cc3)cc2C)CC1 [Compound 421, 1-(1-acetylpiperidin-4-yl)-4-chloro-N-(5-(4-(difluoromethoxy)phenyl)-3-methylpyridin-2-yl)-1H-pyrazole-5-carboxamide]

same assay, conditions: TREK-1 Thallium (Tl+) flux assay; no *^12 (Method 2) mark on these rows

Structure (SMILES)	pIC50
O=C(Nc1ncc(C#Cc2ccccc2)cc1Cl)c1c(Cl)cnn1C[C@H]1COCCO1 [Compound 361, (S)-1-((1,4-dioxan-2-yl)methyl)-4-chloro-N-(3-chloro-5-(phenylethynyl)pyridin-2-yl)-1H-pyrazole-5-carboxamide]	6.04
CC(=O)N1CCC(Cn2ncc(Cl)c2C(=O)Nc2ncc(C#Cc3ccc(F)cc3)cc2C)C(C)C1 (stereo not shown) [Compound 244, 1-((1-acetyl-3-methylpiperidin-4-yl)methyl)-4-chloro-N-(5-((4-fluorophenyl)ethynyl)-3-methylpyridin-2-yl)-1H-pyrazole-5-carboxamide]	6.42
CC(=O)N1CCC(CCn2ncc(Cl)c2C(=O)Nc2ncc(C#Cc3ccccc3F)cc2C)CC1 [Compound 196, 1-(2-(1-acetylpiperidin-4-yl)ethyl)-4-chloro-N-(5-((2-fluorophenyl)ethynyl)-3-methylpyridin-2-yl)-1H-pyrazole-5-carboxamide]	6.52
Cc1cc(C#Cc2ccc(F)cc2)cnc1NC(=O)c1c(Cl)cnn1CC1(F)CCN(C(=O)C(C)C)CC1 [Compound 339, 4-chloro-1-((4-fluoro-1-isobutyrylpiperidin-4-yl)methyl)-N-(5-((4-fluorophenyl)ethynyl)-3-methylpyridin-2-yl)-1H-pyrazole-5-carboxamide]	6.14
CC(=O)N[C@H]1C[C@H](n2ncc(Cl)c2C(=O)Nc2ncc(C#Cc3ccc(F)cc3)cc2C)C1 [Compound 351, 1-(trans-3-acetamidocyclobutyl)-4-chloro-N-(5-((4-fluorophenyl)ethynyl)-3-methylpyridin-2-yl)-1H-pyrazole-5-carboxamide]	6.09
Cc1cc(C#Cc2ccccc2)cc(F)c1NC(=O)c1c(Cl)cnn1C[C@H]1COCCO1 [Compound 285, (S)-1-((1,4-dioxan-2-yl)methyl)-4-chloro-N-(2-fluoro-6-methyl-4-(phenylethynyl)phenyl)-1H-pyrazole-5-carboxamide]	6.30

Results, then the compound that gave them:

pIC50	Structure (SMILES)
6.42	CC(C)(C)OC(=O)N1CC(n2ncc(Cl)c2C(=O)Nc2ncc(C#Cc3ccccc3)cc2F)C1 [Compound 243, tert-butyl 3-(4-chloro-5-((3-fluoro-5-(phenylethynyl)pyridin-2-yl)carbamoyl)-1H-pyrazol-1-yl)azetidine-1-carboxylate]
6.15	CC(C)(C)OC(=O)N1CCC(n2ncc(Cl)c2C(=O)Nc2ncc(C#Cc3cccs3)cc2F)CC1 [Compound 335, tert-butyl 4-(4-chloro-5-((3-fluoro-5-(thiophen-2-ylethynyl)pyridin-2-yl)carbamoyl)-1H-pyrazol-1-yl)piperidine-1-carboxylate]
6.38	Cc1cc(C#Cc2ccc(F)cc2)cnc1NC(=O)c1c(Cl)cnn1C1CCN(C(=O)CC(C)C)C1 (stereo not shown) [Compound 258, 4-chloro-N-(5-((4-fluorophenyl)ethynyl)-3-methylpyridin-2-yl)-1-(1-(3-methylbutanoyl)pyrrolidin-3-yl)-1H-pyrazole-5-carboxamide]
6.24	Cc1cc(C#Cc2ccccc2)cnc1NC(=O)c1c(Cl)cnn1C1CCOC1 (stereo not shown) [Compound 306, 4-chloro-N-(3-methyl-5-(phenylethynyl)pyridin-2-yl)-1-(tetrahydrofuran-3-yl)-1H-pyrazole-5-carboxamide]
6.24	Cc1cc(C#Cc2ccccc2)cnc1NC(=O)c1c(Cl)cnn1C1CCN(C(=O)OC(C)(C)C)C1 (stereo not shown) [Compound 307, tert-butyl 3-(4-chloro-5-((3-methyl-5-(phenylethynyl)pyridin-2-yl)carbamoyl)-1H-pyrazol-1-yl)pyrrolidine-1-carboxylate]
6.46	Cc1cc(C#Cc2ccc(F)cc2)cnc1NC(=O)c1c(Cl)cnn1C1CCN(C(=O)C2CC2)C1 (stereo not shown) [Compound 229, 4-chloro-1-(1-(cyclopropanecarbonyl)pyrrolidin-3-yl)-N-(5-((4-fluorophenyl)ethynyl)-3-methylpyridin-2-yl)-1H-pyrazole-5-carboxamide]

same assay, conditions: TREK-1 Thallium (Tl+) flux assay; values without footnote *12 are Method 1

Structure (SMILES)	pIC50
Cc1cc(C#Cc2ccccc2)cnc1NC(=O)c1c(Cl)cnn1-c1ccc2c(c1)OCCO2 [Compound 21, 4-chloro-1-(2,3-dihydrobenzo[b][1,4]dioxin-6-yl)-N-(3-methyl-5-(phenylethynyl)pyridin-2-yl)-1H-pyrazole-5-carboxamide]	7.15
CC(=O)N1CCC(Cn2ncc(Cl)c2C(=O)Nc2ncc(C#Cc3ccccc3)cc2F)CC1 [Compound 42, 1-((1-acetylpiperidin-4-yl)methyl)-4-chloro-N-(3-fluoro-5-(phenylethynyl)pyridin-2-yl)-1H-pyrazole-5-carboxamide]	6.89
CC(C)C(=O)N[C@H]1C[C@@H](n2ncc(Cl)c2C(=O)Nc2ncc(C#Cc3ccccc3)cc2F)C1 [Compound 124, 4-chloro-N-(3-fluoro-5-(phenylethynyl)pyridin-2-yl)-1-(cis-3-isobutyramidocyclobutyl)-1H-pyrazole-5-carboxamide]	6.68
CC(=O)N1CC(Cn2ncc(Cl)c2C(=O)Nc2ncc(C#Cc3ccccc3)cc2F)C1 [Compound 93, 1-((1-acetylazetidin-3-yl)methyl)-4-chloro-N-(3-fluoro-5-(phenylethynyl)pyridin-2-yl)-1H-pyrazole-5-carboxamide]	6.74
Cc1cc(C#Cc2ccc(F)cc2)cnc1NC(=O)c1c(Cl)cnn1C1CCN(C(=O)C2CC2)CC1 [Compound 101, 4-chloro-1-(1-(cyclopropanecarbonyl)piperidin-4-yl)-N-(5-((4-fluorophenyl)ethynyl)-3-methylpyridin-2-yl)-1H-pyrazole-5-carboxamide]	6.72
Cc1cc(C#Cc2cccs2)cnc1NC(=O)c1c(Cl)cnn1[C@H]1CCOC1 [Compound 89, (S)-4-chloro-N-(3-methyl-5-(thiophen-2-ylethynyl)pyridin-2-yl)-1-(tetrahydrofuran-3-yl)-1H-pyrazole-5-carboxamide]	6.74
CC(=O)N1CCC(C#N)(Cn2ncc(Cl)c2C(=O)Nc2ncc(C#Cc3ccccc3)cc2C)CC1 [Compound 84, 1-((1-acetyl-4-cyanopiperidin-4-yl)methyl)-4-chloro-N-(3-methyl-5-(phenylethynyl)pyridin-2-yl)-1H-pyrazole-5-carboxamide]	6.80
CCNC(=O)N1C[C@H]2C[C@H](n3ncc(Cl)c3C(=O)Nc3ncc(C#Cc4cccc(F)c4)cc3C)C[C@H]2C1 [Compound 132, (3aR,5s,6aS)-5-[4-chloro-5-({5-[(3-fluorophenyl)ethynyl]-3-methylpyridin-2-yl}carbamoyl)-1H-pyrazol-1-yl]-N-ethylhexahydrocyclopenta[c]pyrrole-2(1H)-carboxamide]	6.66

The remaining lines, values ahead:

pIC50	Structure (SMILES)
6.89	CC(=O)N[C@H]1CC[C@H](n2ncc(Cl)c2C(=O)Nc2ncc(C#Cc3ccccc3)cc2C)CC1 [Compound 47, 1-(trans-4-acetamidocyclohexyl)-4-chloro-N-(3-methyl-5-(phenylethynyl)pyridin-2-yl)-1H-pyrazole-5-carboxamide]
6.66	CC(C)(C)OC(=O)N1CCC(F)(Cn2ncc(Cl)c2C(=O)Nc2ncc(C#Cc3ccccc3)cc2F)CC1 [Compound 134, tert-butyl 4-((4-chloro-5-((3-fluoro-5-(phenylethynyl)pyridin-2-yl)carbamoyl)-1H-pyrazol-1-yl)methyl)-4-fluoropiperidine-1-carboxylate]
6.54	Cc1cc(C#Cc2ccccc2)cnc1NC(=O)c1c(Cl)cnn1CC1CCN(C(=O)OC(C)(C)C)CC1 [Compound 186, tert-butyl 4-((4-chloro-5-((3-methyl-5-(phenylethynyl)pyridin-2-yl)carbamoyl)-1H-pyrazol-1-yl)methyl)piperidine-1-carboxylate]
6.72	Cc1cc(C#Cc2ccccc2)cnc1NC(=O)c1c(Cl)cnn1C[C@H]1CCN(C(=O)C(C)C)C[C@H]1F [Compound 108, 4-chloro-1-(((3S,4R)-3-fluoro-1-isobutyrylpiperidin-4-yl)methyl)-N-(3-methyl-5-(phenylethynyl)pyridin-2-yl)-1H-pyrazole-5-carboxamide]
6.62	Cc1cc(C#Cc2ccccc2)cnc1NC(=O)c1c(Cl)cnn1CC1(F)CCN(C(=O)OC(C)(C)C)CC1 [Compound 155, tert-butyl 4-((4-chloro-5-((3-methyl-5-(phenylethynyl)pyridin-2-yl)carbamoyl)-1H-pyrazol-1-yl)methyl)-4-fluoropiperidine-1-carboxylate]

same assay, conditions: read-out: Tl^+ Assay % inhibition at 30 uM (Minus value indicates activation of TREK-1); at 30 uM; CHO-K1 cells stably expressing human TREK-1; minus = activation

inhibition at 30 µM [%]	Structure (SMILES)
-107	CC(=O)N1CCC(CCn2cc(Cl)c(C(=O)Nc3ncc(C#Cc4cccs4)cc3F)n2)CC1 [Compound 447, 1-(2-(1-acetylpiperidin-4-yl)ethyl)-4-chloro-N-(3-fluoro-5-(thiophen-2-ylethynyl)pyridin-2-yl)-1H-pyrazole-3-carboxamide]
